The results in this text go back to patent US20110313015A1, “Fludioxonil Derivatives” (Bayer CropScience AG, priority 2010, published 2011).

Each structure is given as a SMILES string.

The assay relates to common bent (Agrostis capillaris). In words: Herbicidal early post-emergence action (microtitre plate, visual assessment of damage). The conditions noted are these: application rate 1900 g/ha, assessed after 10 days vs untreated controls, 100% = plants have died, 0% = like control plants. Format: in vivo. As for the experimental part:
Seeds of mono- and dicotyledonous harmful plants are, in a microtitre plate, placed into sand. The compounds according to the invention, formulated as emulsion concentrates (EC), are then applied as an aqueous emulsion using spray nozzles adapted to the uHTVS to the germinated plants. After the treatment, the microtitre plates are placed in a climatized chamber and kept under good growth conditions for the test plants. The visual assessment of the damage to the test plants is carried out after a trial period of 10 days by comparison with untreated controls (herbicidal activity in percent (%): 100% activity=the plants have died, 0% activity=like control plants).

With `COC(=O)CCn1cc(C#N)c(-c2cccc3c2OC(F)(F)O3)c1` [No. 1], the herbicidal activity was found to be 100%.
